Results on three compounds are retold here after patent publication US20250235399A1, “METHODS OF PREPARING CARRIER-BASED DRY POWDERS FOR INHALATION” (Board of Regents, The University of Texas System, priority 2022, published 2025).

The nature of data set [1]: Geometric particle size of rifampicin blends and starting materials (HELOS laser diffraction, RODOS). Particulars: Table 3; for X10 / X50 / X90: particle size distribution. Format: physicochemical. Here is the method: The geometric particle size of the powder blends was measured using laser diffraction (HELOS, Sympatec, Germany) for the pre-blend and after each blending cycle. Measurements were done using a RODOS powder disperser at a pressure drop of 1 bar and rotor speed set at 50% (FIG. 6). […] The particles diameter is expressed as the mean Xn diameter values, where n % of the particles have a diameter≤X. Jaffari, S., et al. Rapid Characterisation of the Inherent Dispersibility of Respirable Powders Using Dry Dispersion Laser Diffraction. Int. J. Pharm. […] A measure of particle size distribution breadth is represented by the calculated factor “Span”. This was calculated using the following expression: (X90−X10)/X50.
Particle size analysis was conducted on blended materials and compared to pre-blend and lactose/magnesium stearate controls.

Data set [2] in a line: Particle size of budesonide blend starting materials (HELOS/RODOS laser diffraction). Format: physicochemical. Particulars: RODOS laser diffraction, 3 bar, 50% rotation. Here is the method:
Particle size distribution of alpha-lactose monohydrate, magnesium stearate and budesonide were analyzed using a laser diffractometer (Sympatec, Clausthal-Zellerfeld, Germany). […] About 0.5 g of each component was carefully loaded on the turntable of the vibratory feeding module. Samples were dispersed at 3 bar and 50% rotation (FIG. 11). Data was acquired using Windox software (Sympatec, Clausthal-Zellerfeld, Germany) and volume-based size distribution was calculated using Fraunhofer theory.
Table 6 lists the particle size distribution for starting materials as determined by laser diffraction. Budesonide was confirmed to be sufficiently micronized (e.g. less than 5 μm). Magnesium stearate and lactose size distributions were within the size ranges provided by manufacturers.

In the case of `O.OC[C@H]1O[C@@H](O[C@H]2[C@H](O)[C@@H](O)[C@@H](O)O[C@@H]2CO)[C@H](O)[C@@H](O)[C@H]1O` [Lactohale 206], in data set [1], the X10 worked out at 1.91 μm, the X50 is 4.15 μm and the X90 came to 116.14 μm.

In data set [2], `O.OC[C@H]1O[C@@H](O[C@H]2[C@H](O)[C@@H](O)[C@@H](O)O[C@@H]2CO)[C@H](O)[C@@H](O)[C@H]1O` [Lactose, Alpha-lactose monohydrate] showed a D10 of 32.09 μm, a D50 of 80.34 μm and a D90 of 111.84 μm.

In data set [2], Magnesium stearate showed a D10 of 1.29 μm, a D50 of 4.45 μm and a D90 of 9.93 μm. In data set [1], the “Span ((X90-X10)/X50)” value is reported as 1.87, the X10 is listed as 2.08 μm, the X50 is 8.14 μm and the X90 is listed as 17.34 μm.
